Assay [1] deals with ST-13. As to the kind of experiment: Induction of adiponectin secretion in mouse ST-13 cells after 11 days by ELISA. Format: functional, cell-based. In general terms: ELISA stands for enzyme-linked immunosorbent assay.
In assay [2] the test system is ST-13. The experiment in a line: Induction of preadipocyte differentiation in mouse ST-13 cells assessed as lipid accumulation at 5 uM within 11 days by oil red-staining relative to control. The class given is functional, cell-based.
Assay [3] has as its system ST-13. As to the kind of experiment: Induction of preadipocyte differentiation in mouse ST-13 cells assessed as lipid accumulation at 10 uM within 11 days by oil red-staining relative to control. The class given is functional, cell-based.
The test system of assay [4] is ST-13. The experiment in a line: Induction of preadipocyte differentiation in mouse ST-13 cells assessed as triglyceride accumulation after 11 days by Fletcher's method. The class given is functional, cell-based.
Assay [5] deals with ST-13. The experiment in a line: Induction of adipocyte differentiation in mouse ST-13 cells assessed as stimulation of adipsin mRNA expression at 0.1 to 30 uM within 11 days by semi-quantitative RT-PCR. The class given is functional, cell-based.
In assay [6] the test system is ST-13. As to the kind of experiment: Induction of adipocyte differentiation in mouse ST-13 cells assessed as stimulation of adipocyte P2 mRNA expression at 0.1 to 30 uM within 11 days by semi-quantitative RT-PCR. Format: functional, cell-based.
The nature of assay [7]: Induction of adiponectin secretion in mouse ST-13 cells at 10 uM after 11 days by ELISA relative to control. The class given is functional.
Assay [8] concerns ST-13. As to the kind of experiment: Induction of adiponectin protein secretion in mouse ST-13 cells assessed as adiponectin mRNA level after 11 days by semi-quantitative RT-PCR. Format: functional, cell-based.
Assay [9] deals with ST-13. As to the kind of experiment: Induction of adipocyte differentiation in mouse ST-13 cells assessed as increase in PPARgamma2 mRNA level after 11 days by semi-quantitative RT-PCR relative to control. Format: functional, cell-based.
The target in assay [10] is T1, Peroxisome proliferator-activated receptor gamma (Homo sapiens) (UniProt P37231).
T1 sequence (whole entry): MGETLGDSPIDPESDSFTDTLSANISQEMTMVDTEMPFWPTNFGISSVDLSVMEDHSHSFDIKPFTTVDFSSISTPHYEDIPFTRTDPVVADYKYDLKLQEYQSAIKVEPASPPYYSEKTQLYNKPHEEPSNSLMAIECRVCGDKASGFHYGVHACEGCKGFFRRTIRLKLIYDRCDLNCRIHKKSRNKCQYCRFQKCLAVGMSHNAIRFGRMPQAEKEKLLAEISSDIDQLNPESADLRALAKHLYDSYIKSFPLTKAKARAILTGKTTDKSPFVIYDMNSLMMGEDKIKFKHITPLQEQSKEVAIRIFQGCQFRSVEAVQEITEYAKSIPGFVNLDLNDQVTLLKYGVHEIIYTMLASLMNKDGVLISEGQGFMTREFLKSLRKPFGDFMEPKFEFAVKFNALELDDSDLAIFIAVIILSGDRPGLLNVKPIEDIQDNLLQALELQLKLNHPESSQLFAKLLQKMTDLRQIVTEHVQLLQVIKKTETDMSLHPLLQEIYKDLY
The experiment in a line: Agonist activity at Gal4-fused human PPARgamma expressed in african green monkey COS1 cells at 30 uM by luciferase reporter gene assay. The class given is functional, cell-based. Particulars: COS-1. For orientation: Reporter assays use an easily measured gene product as a stand-in for the process of interest.

Activity calls are given as the source filed them. The calls are words filed in the database; no cut-off is given here.

`COc1ccc(-c2cc(=O)c3c(OC)cc(OC)c(OC)c3o2)cc1`: the outcome in [1] was Active.
As to `Cc1c(C)c2c(c(C)c1O)CCC(C)(COc1ccc(CC3SC(=O)NC3=O)cc1)O2` (stereo unspecified), the result in [2] was Active.
Take `COc1ccc(-c2cc(=O)c3c(OC)c(OC)c(OC)c(OC)c3o2)cc1OC` [NOBILETIN]: the result in assay [3], in [5], in [6] and in assay [9] was Active. For the same molecule, the Activity entry in assay [4] was “Dose-dependent effect”; in assay [1], “Dose-dependent effect”; in [7], 340%; in [8], “Dose-dependent effect”. For the same molecule, the result in assay [10] was inactive.

The record behind these values is ChEMBL document CHEMBL1158405, “Identification of nobiletin, a polymethoxyflavonoid, as an enhancer of adiponectin secretion” (2009).
